Measured values from PubChem BioAssay AID1845196 (Molecular Pharmacology Branch, DTP, NCI, 2023).
pIC50: −log10 of the molar value.

Tested on: 292921-168-R tumor spheroid viability
Experiment: Anticancer human tumor 292921-168-R patient-derived pancreatic carcinoma cell line growth inhibition
Settings: spheroids with HUVEC and MSC; for pIC50: curve of first compound; for viability, T/C: stronger effect = lower value; active = viability on the fitted dose curve at most 10% of control; inactive = the rest
Summary of the method: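 Complex spheroids of malignant cells with endothelial cells and mesenchymal stem cells; agents alone or combined, from near clinical Cmax (or 10 microM if unknown) down in half-log steps, 0.25% DMSO final.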

[1] = second compound 0.003 µM, first compound 0.0316 µM
[2] = second compound 0.003 µM, first compound 0.1 µM
[3] = second compound 0.003 µM, first compound 0.316 µM
[4] = second compound 0.003 µM, first compound 1 µM
[5] = second compound 0.003 µM, first compound 3.16 µM
[6] = second compound 0.003 µM, first compound 10 µM
[7] = second compound 0.00949 µM, first compound 0.0316 µM
[8] = second compound 0.00949 µM, first compound 0.1 µM
[9] = second compound 0.00949 µM, first compound 0.316 µM
[10] = second compound 0.00949 µM, first compound 1 µM
[11] = second compound 0.00949 µM, first compound 3.16 µM
[12] = second compound 0.00949 µM, first compound 10 µM
[13] = second compound 0.03 µM, first compound 0.0316 µM
[14] = second compound 0.03 µM, first compound 0.1 µM
[15] = second compound 0.03 µM, first compound 0.316 µM
[16] = second compound 0.03 µM, first compound 1 µM
[17] = second compound 0.03 µM, first compound 3.16 µM
[18] = second compound 0.03 µM, first compound 10 µM
[19] = second compound 0.0949 µM, first compound 0.0316 µM
[20] = second compound 0.0949 µM, first compound 0.1 µM
[21] = second compound 0.0949 µM, first compound 0.316 µM
[22] = second compound 0.0949 µM, first compound 1 µM
[23] = second compound 0.0949 µM, first compound 3.16 µM
[24] = second compound 0.0949 µM, first compound 10 µM
[25] = second compound 0.3 µM, first compound 0.0316 µM
[26] = second compound 0.3 µM, first compound 0.1 µM
[27] = second compound 0.3 µM, first compound 0.316 µM
[28] = second compound 0.3 µM, first compound 1 µM
[29] = second compound 0.3 µM, first compound 3.16 µM
[30] = second compound 0.3 µM, first compound 10 µM
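Also: spheroids exposed to compounds for 7 days.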

COc1cc(C)[nH]c(=O)c1CN1CCc2c(Cl)cc(C(OC)C3COC3)c(Cl)c2C1=O (stereo not given) + CC[C@@]1(O)C(=O)OCc2c1cc1n(c2=O)Cc2cc3c(CN(C)C)c(O)ccc3nc2-1
> 7.50: pIC50 (second compound 0.0949 µM) | pIC50 (second compound 0.3 µM)
active: viability, T/C [23] 10.1% | viability, T/C [24] 7.35% | viability, T/C [25] 4.43% | viability, T/C [26] 4.26% | viability, T/C [27] 3.82% | viability, T/C [28] 2.93% | viability, T/C [29] 3.15% | viability, T/C [30] 3.34%
6.40: pIC50 (second compound 0.03 µM)
inactive: viability, T/C [1] 108% | viability, T/C [2] 102% | viability, T/C [3] 85% | viability, T/C [4] 90.7% | viability, T/C [5] 88.7% | viability, T/C [6] 82.8% | viability, T/C [7] 92.6% | viability, T/C [8] 94.1% | viability, T/C [9] 71.3% | viability, T/C [10] 71.5% | viability, T/C [11] 81.3% | viability, T/C [12] 63.3% | viability, T/C [13] 50.6% | viability, T/C [14] 59.1% | viability, T/C [15] 53.4% | viability, T/C [16] 39.2% | viability, T/C [17] 40.2% | viability, T/C [18] 19.8% | viability, T/C [19] 13.1% | viability, T/C [20] 15.6% | viability, T/C [21] 12.9% | viability, T/C [22] 9.42%
< 5.00: pIC50 (second compound 0.003 µM) | pIC50 (second compound 0.00949 µM)

Cc1cc(C)c(CNC(=O)c2cc(-c3ccc(CN4CCOCC4)cc3)cc3c2cnn3C2CCCC2)c(=O)[nH]1 + Cn1nnc2c(C(N)=O)ncn2c1=O
< 5.00: pIC50 (second compound 1 µM) | pIC50 (second compound 3.16 µM) | pIC50 (second compound 10 µM) | pIC50 (second compound 31.6 µM) | pIC50 (second compound 100 µM)
inactive: viability, T/C (second compound 1 µM, first compound 0.0316 µM) 91.6% | viability, T/C (second compound 1 µM, first compound 0.1 µM) 92.7% | viability, T/C (second compound 1 µM, first compound 0.316 µM) 97.4% | viability, T/C (second compound 1 µM, first compound 1 µM) 86.6% | viability, T/C (second compound 1 µM, first compound 3.16 µM) 78.7% | viability, T/C (second compound 1 µM, first compound 10 µM) 54.3% | viability, T/C (second compound 3.16 µM, first compound 0.0316 µM) 94.2% | viability, T/C (second compound 3.16 µM, first compound 0.1 µM) 96.6% | viability, T/C (second compound 3.16 µM, first compound 0.316 µM) 94.9% | viability, T/C (second compound 3.16 µM, first compound 1 µM) 92.4% | viability, T/C (second compound 3.16 µM, first compound 3.16 µM) 85.2% | viability, T/C (second compound 3.16 µM, first compound 10 µM) 60.4% | viability, T/C (second compound 10 µM, first compound 0.0316 µM) 86.8% | viability, T/C (second compound 10 µM, first compound 0.1 µM) 94.4% | viability, T/C (second compound 10 µM, first compound 0.316 µM) 96% | viability, T/C (second compound 10 µM, first compound 1 µM) 92.5% | viability, T/C (second compound 10 µM, first compound 3.16 µM) 83.7% | viability, T/C (second compound 10 µM, first compound 10 µM) 56.1% | viability, T/C (second compound 31.6 µM, first compound 0.0316 µM) 88.5% | viability, T/C (second compound 31.6 µM, first compound 0.1 µM) 86.4% | viability, T/C (second compound 31.6 µM, first compound 0.316 µM) 83.5% | viability, T/C (second compound 31.6 µM, first compound 1 µM) 92.5% | viability, T/C (second compound 31.6 µM, first compound 3.16 µM) 85.7% | viability, T/C (second compound 31.6 µM, first compound 10 µM) 51.1% | viability, T/C (second compound 100 µM, first compound 0.0316 µM) 83.5% | viability, T/C (second compound 100 µM, first compound 0.1 µM) 87.2% | viability, T/C (second compound 100 µM, first compound 0.316 µM) 83.5% | viability, T/C (second compound 100 µM, first compound 1 µM) 77.2% | viability, T/C (second compound 100 µM, first compound 3.16 µM) 79.1% | viability, T/C (second compound 100 µM, first compound 10 µM) 52.5%

CC1COCCN1c1cc(-c2ccnn2C)c2ccnc(-c3ccn[nH]3)c2n1 (stereo not given) + CC[C@@]1(O)C(=O)OCc2c1cc1n(c2=O)Cc2cc3c(CN(C)C)c(O)ccc3nc2-1
> 7.50: pIC50 (second compound 0.003 µM) | pIC50 (second compound 0.00949 µM) | pIC50 (second compound 0.03 µM) | pIC50 (second compound 0.0949 µM) | pIC50 (second compound 0.3 µM)
active: viability, T/C [19] 4.99% | viability, T/C [20] 4.72% | viability, T/C [21] 5.08% | viability, T/C [22] 8.1% | viability, T/C [23] 10.9% | viability, T/C [24] 12.6% | viability, T/C [25] 2.78% | viability, T/C [26] 2.83% | viability, T/C [27] 3.27% | viability, T/C [28] 4.98% | viability, T/C [29] 6.98% | viability, T/C [30] 9.23%
inactive: viability, T/C [1] 22.8% | viability, T/C [2] 13.6% | viability, T/C [3] 10% | viability, T/C [4] 12.2% | viability, T/C [5] 14.4% | viability, T/C [6] 15.4% | viability, T/C [7] 11.6% | viability, T/C [8] 9.97% | viability, T/C [9] 10% | viability, T/C [10] 11.8% | viability, T/C [11] 13.8% | viability, T/C [12] 15% | viability, T/C [13] 8.44% | viability, T/C [14] 7.98% | viability, T/C [15] 9.15% | viability, T/C [16] 10.8% | viability, T/C [17] 12.5% | viability, T/C [18] 14.3%
